According to ChEMBL document CHEMBL1201862, “PubChem BioAssay data set” (2004):
Active and inactive are the calls of the source.

Tests used:
[1] = target: T1, Tyrosine-protein phosphatase non-receptor type 7 (Homo sapiens, UniProt P35236); test: redox-dependent HePTP inhibition, mechanism study, biochemical, fluorescence (AID 2068); assay type: functional
T1 sequence (P35236 whole entry): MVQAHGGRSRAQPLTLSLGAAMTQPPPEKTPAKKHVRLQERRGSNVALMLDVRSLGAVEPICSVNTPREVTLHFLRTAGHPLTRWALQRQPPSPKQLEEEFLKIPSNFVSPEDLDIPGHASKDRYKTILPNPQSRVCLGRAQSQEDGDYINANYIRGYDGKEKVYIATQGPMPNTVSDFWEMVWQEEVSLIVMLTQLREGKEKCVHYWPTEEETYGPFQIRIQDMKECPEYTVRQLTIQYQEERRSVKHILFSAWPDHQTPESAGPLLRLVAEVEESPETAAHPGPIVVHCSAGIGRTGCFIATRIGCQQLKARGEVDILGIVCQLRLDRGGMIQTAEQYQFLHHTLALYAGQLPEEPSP

[2] = target: T2, Dual specificity protein phosphatase 6 (Rattus norvegicus, UniProt Q64346); assay type: functional;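 further: confirmatory in vitro dose-response testing of MKP-3 inhibition; recombinant His-tagged MKP-3 made in E. coli BL21 with OMFP substrate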
T2 sequence (Q64346 whole entry): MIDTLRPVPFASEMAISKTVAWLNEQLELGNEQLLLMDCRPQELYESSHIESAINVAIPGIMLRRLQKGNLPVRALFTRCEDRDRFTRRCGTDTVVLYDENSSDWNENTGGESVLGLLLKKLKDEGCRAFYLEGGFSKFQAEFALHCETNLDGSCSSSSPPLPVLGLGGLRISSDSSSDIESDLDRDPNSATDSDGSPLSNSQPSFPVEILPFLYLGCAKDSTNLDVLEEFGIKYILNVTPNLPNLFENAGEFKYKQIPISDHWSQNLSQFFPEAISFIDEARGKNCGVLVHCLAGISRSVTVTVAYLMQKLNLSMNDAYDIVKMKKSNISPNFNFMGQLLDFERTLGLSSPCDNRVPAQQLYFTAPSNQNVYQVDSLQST

[3] = tested on: Streptococcus sp. 'group A'; test: growth inhibition of control SK(-) GAS strain, dose response, counter-screen for streptokinase expression inhibitor project, luminescence, kanamycin, BacTiterGlo, confirmation (AID 1900); assay type: functional, organism-based
[4] = inhibitors of intracellular T. cruzi replication, confirmation, NIH3T3 host cells, beta-gal luminescence (AID 2044); assay type: functional, cell-based;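 further: intracellular parasites grown in NIH/3T3 mouse fibroblasts as host cells; luminescent beta-galactosidase reporter signal from transgenic T. cruzi replicating inside host cells; inhibitors lower the luminescence signal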
[5] = cytotoxicity toward NIH3T3 fibroblasts, dose response, counter-screen, cell-based, ATP luminescence, mouse fibroblasts (AID 2010); assay type: functional;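 further: cells exposed to compound for about 90 hours before reading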
[6] = tested on: Streptococcus; test: Group A Streptococcus viability loss, dose response, counter-screen for streptokinase expression inhibitor project, luminescence, BacTiterGlo (AID 1915); assay type: functional, organism-based;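 further: potency for reduction of bacterial viability or growth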
[7] = Intein inhibitors as potential Tuberculosis drugs, a cytotoxicity screen. [Related pubchem assays (depositor defined):AID2221, AID2223, AID434968, AID435010, AID449749, AID449750, AID489010]; assay type: functional
[8] = tested on: INS1; test: beta cell apoptosis inhibitors, cytokine rescue, dose response, luminescence, retest (AID 449756); assay type: functional, cell-based; conditions: Rattus norvegicus;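 further: cell death triggered by IL-1 beta plus TNF-alpha plus IFN-gamma mixture; protective hits raise ATP signal compared with cytokine alone wells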
[9] = target: T3, Replicative DNA helicase DnaB (Mycobacterium tuberculosis, UniProt P9WMR3); test: DnaB intein splicing inhibitors, dose response, biochemical, cell-free fluorescence (AID 449749); assay type: functional
T3 sequence (P9WMR3 whole entry): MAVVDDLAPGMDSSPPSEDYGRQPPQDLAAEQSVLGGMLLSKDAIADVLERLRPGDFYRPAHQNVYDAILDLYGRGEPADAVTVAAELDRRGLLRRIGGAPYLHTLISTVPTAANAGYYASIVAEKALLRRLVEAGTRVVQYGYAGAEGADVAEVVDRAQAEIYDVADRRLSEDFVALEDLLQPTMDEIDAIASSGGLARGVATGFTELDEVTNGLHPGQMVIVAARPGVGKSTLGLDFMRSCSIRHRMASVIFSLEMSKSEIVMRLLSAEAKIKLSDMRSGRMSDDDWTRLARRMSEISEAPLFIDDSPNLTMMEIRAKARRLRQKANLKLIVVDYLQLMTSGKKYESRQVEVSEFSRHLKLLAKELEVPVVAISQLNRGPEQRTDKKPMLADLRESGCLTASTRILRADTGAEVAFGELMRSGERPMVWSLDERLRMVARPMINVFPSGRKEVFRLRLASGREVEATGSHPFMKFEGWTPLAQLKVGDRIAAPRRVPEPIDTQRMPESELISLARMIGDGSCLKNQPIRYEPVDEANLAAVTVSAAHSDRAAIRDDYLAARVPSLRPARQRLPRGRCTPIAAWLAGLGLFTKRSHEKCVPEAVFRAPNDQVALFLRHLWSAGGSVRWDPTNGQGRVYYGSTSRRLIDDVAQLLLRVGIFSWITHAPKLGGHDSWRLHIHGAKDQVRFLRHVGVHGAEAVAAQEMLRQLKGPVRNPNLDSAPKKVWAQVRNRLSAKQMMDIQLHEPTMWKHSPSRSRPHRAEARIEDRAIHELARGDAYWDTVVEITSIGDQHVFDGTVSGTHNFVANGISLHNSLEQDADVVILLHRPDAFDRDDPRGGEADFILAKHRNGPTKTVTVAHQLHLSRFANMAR

[10] = target: Heat shock protein HSP 90-alpha (Homo sapiens, UniProt P07900); assay type: functional, organism-based
[11] = target: T4, Protein RecA (Mycobacterium tuberculosis, UniProt P9WHJ3); test: Fluorescence Cell-Free Homogeneous Dose Retest to Identify Inhibitors of RecA-Intein Splicing Activity. [Related pubchem assays (depositor defined):AID2097, AID2223, AID489010, AID492950]; assay type: functional
T4 sequence (P9WHJ3 whole entry): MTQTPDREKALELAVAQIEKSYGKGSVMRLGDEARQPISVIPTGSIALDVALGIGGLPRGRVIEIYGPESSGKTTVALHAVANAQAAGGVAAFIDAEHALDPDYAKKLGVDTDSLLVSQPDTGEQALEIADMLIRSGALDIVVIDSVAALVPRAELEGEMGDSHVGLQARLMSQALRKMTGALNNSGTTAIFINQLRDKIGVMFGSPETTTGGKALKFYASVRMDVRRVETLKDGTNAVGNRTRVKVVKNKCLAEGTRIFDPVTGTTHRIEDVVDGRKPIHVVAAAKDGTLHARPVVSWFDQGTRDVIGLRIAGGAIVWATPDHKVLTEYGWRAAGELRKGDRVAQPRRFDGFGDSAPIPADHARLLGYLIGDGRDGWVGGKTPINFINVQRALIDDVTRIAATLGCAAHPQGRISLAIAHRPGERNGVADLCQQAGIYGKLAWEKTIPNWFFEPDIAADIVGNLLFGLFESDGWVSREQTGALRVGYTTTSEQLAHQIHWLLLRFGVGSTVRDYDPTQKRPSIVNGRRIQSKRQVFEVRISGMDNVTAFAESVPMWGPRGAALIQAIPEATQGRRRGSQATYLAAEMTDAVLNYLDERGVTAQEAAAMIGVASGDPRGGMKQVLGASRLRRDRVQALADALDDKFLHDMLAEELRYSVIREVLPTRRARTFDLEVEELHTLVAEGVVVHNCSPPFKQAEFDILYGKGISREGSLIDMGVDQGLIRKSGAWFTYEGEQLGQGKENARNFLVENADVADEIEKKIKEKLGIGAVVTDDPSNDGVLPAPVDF

[12] = tested on: BJ; test: cytotoxicity toward BJ-TERT fibroblasts, dose response, cell-based, RAS-independent, luminescence (AID 1933); assay type: functional; conditions: Homo sapiens
[13] = tested on: BJ; test: cells; assay type: functional, cell-based; conditions: Homo sapiens
[14] = tested on: BJ; test: cytotoxicity toward BJ-TERT-LT-ST fibroblasts, dose response, cell-based, RAS-independent, luminescence (AID 1935); assay type: functional; conditions: Homo sapiens;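 further: BJ fibroblasts immortalized with TERT plus LT and ST oncogenes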
[15] = cytotoxicity toward DRD oncogenic fibroblasts, dose response, cell-based, non-viral oncogenic, luminescence (AID 1934); assay type: functional; conditions: Homo sapiens
[16] = cytotoxicity in HEK-293T cells, dose response, cytotoxicity control for TCR NF-kB inhibitor project, luminescence, T-cell screen hits (AID 489026); assay type: functional, cell-based;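 further: cells exposed to compound about 14 hours before the viability readout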
[17] = target: T5, Protein skinhead-1 (Caenorhabditis elegans, UniProt P34707); assay type: functional
T5 sequence (P34707 whole entry): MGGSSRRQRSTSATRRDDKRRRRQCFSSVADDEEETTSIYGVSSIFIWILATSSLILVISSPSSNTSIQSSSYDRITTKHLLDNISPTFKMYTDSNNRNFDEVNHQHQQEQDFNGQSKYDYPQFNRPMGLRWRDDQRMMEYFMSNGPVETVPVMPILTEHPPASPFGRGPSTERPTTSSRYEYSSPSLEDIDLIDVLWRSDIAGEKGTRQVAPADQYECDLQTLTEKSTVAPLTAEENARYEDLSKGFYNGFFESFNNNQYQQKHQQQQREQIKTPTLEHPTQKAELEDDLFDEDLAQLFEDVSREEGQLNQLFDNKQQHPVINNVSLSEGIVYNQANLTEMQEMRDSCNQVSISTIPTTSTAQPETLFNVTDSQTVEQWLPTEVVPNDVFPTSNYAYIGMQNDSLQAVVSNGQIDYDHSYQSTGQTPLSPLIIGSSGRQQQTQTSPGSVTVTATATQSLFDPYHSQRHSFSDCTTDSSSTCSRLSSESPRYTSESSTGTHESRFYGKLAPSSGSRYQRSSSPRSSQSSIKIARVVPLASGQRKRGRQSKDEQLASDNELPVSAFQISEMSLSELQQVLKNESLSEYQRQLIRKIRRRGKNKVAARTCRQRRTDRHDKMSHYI

[18] = target: Alkaline phosphatase, placental type (Homo sapiens, UniProt P05187); test: PLAP enzyme inhibitors, confirmation, biochemical, luminescence (AID 1512); assay type: functional
[19] = target: T6, Alkaline phosphatase, tissue-nonspecific isozyme (Homo sapiens, UniProt P05186); test: human TNAP enzyme inhibitors, SAR follow-up, biochemical, luminescent, dose response (AID 1056)
T6 sequence (P05186 whole entry): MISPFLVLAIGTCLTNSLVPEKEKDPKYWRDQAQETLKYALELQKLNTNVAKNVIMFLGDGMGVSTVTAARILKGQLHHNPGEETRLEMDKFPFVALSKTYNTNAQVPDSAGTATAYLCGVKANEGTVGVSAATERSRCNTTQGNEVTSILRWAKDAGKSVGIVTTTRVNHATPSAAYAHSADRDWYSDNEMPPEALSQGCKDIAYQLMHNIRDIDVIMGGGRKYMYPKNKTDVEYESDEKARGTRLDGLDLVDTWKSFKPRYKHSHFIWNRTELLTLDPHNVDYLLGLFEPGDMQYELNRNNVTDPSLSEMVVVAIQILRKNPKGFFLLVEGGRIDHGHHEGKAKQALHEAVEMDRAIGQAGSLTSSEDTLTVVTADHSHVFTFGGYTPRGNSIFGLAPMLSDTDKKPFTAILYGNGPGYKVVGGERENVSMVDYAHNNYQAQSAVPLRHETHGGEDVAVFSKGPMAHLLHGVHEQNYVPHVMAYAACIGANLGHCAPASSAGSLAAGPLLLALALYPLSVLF
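Wherever CC50 is given: cells exposed to compound for 72 hours before luminescence readout.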

Alkaline phosphatase, placental type, sequence (P05187 whole entry): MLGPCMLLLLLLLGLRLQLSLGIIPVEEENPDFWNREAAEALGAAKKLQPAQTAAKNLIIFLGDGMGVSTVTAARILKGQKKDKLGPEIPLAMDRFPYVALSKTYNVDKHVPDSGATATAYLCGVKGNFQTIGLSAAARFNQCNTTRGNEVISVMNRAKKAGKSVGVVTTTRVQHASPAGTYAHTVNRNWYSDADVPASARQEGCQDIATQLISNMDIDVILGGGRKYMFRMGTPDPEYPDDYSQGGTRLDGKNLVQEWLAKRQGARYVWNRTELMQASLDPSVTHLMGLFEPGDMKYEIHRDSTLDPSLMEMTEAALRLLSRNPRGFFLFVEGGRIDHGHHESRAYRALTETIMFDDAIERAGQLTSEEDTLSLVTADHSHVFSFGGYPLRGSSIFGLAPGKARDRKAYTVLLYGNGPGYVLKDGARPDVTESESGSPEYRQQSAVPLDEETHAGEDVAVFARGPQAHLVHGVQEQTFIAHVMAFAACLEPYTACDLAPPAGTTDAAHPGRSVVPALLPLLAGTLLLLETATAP

COc1cc(C(=S)NC(C)(C)C)ccc1O
IC50 [1]: 13.1 µM (active)
IC50 [2]: > 100 µM (inactive)

O=C(NC(N=C(S)Nc1ccc(Cl)cc1Cl)C(Cl)(Cl)Cl)c1cccc([N+](=O)[O-])c1 (stereo not given)
EC50 [3]: 1.37 µM (active)
EC50 [4]: 1.14 µM (active)
EC50 [5]: 8.05 µM (active)
EC50 [6]: 4.8 µM (active)
CC50 [7]: 11 µM (active)
AC50 [8]: 6.08 µM (active)

CC1(C)N=C(SCC(=O)Nc2ccc(Cl)cc2)C(c2ccc(Cl)cc2)=N1
CC50 [7]: > 40 µM (active)
AC50 [9]: 3.03 µM (active)
AC50 [10]: 11.3 µM (active)
EC50 [11]: 4.7 µM (active)

O=C(c1ccc(Br)cc1)c1cc([N+](=O)[O-])ccc1N1CCOCC1
EC50 [12]: 7.48 µM (active)
EC50 [13]: 14.8 µM (active)
EC50 [14]: 2.91 µM (inconclusive)
EC50 [15]: 2.55 µM (active)
IC50 [16]: > 80 µM (inactive)
IC50 [17]: 44.7 µM (active)

O=C(Cn1cnnn1)c1ccc(O)c(O)c1
IC50 [18]: 16.4 µM (active)
IC50 [19]: > 100 µM (inactive)
